Paper PMC3224947, “Inhibition of HIV-1 integrase nuclear import and replication by a peptide bearing integrase putative nuclear localization signal” (Retrovirology, 2009)

Tests used:
[1] = test system: HIV-1 IN (nuclear import); assay: Immunostaining of intracellular localization of IN in stably transfected, cell-cycle arrested HeLaP4/IN-expressing cells; format: cell-based; conditions: aphidicolin 5 μg/ml arrested HeLaP4/IN cells; 150 μM peptide, 6 h; confocal microscopy (Fig. 1)
Description: Localization studies of transfected IN in cultured cells by immunostaining
HeLaP4/IN-expressing cells were grown on chamber slides (Nunc). […] Cells were fixed and immunostained essentially as described previously with several modifications. Briefly, after fixation cells were blocked with 5% (w/v) BSA (IgG free) (Jackson) in PBS for 60 min. […] Cells were washed five times with PBS + 0.05% (v/v) Tween 20. Then the cells were incubated with a second antibody, Cy3-conjugated anti-rabbit antibody (Jackson) (1:200) at room temperature for 60 min followed by five washes with PBS + 0.05% Tween 20. For detection of DNA, cells were stained with DAPI according to the manufacturer's protocol. The slides were prepared with mounting media (Bio-Rad) and immunofluorescent cells were detected with a confocal microscope.

HIV-1 in TZM-bl cells = assay: MAGI assay, HIV-1 infection of TZM-bl cells (β-galactosidase reporter); format: cell-based; conditions: TZM-bl cells (Fig. 9A, B); dividing/non-dividing not distinguished
Description: HIV-1 titration by multinuclear activation of a galactosidase indicator (MAGI) assay
Quantitative titration of HIV-1 was carried out using the MAGI assay, as described previously. Briefly, TZM-b1 cells were grown in 96-well plates at 10^4 cells/well and incubated for 12 h at 37°C. Peptides were then added and after an additional 2 h of incubation, the cells were infected with 50 μl of serially diluted HIV-1. To obtain cell-cycle arrested cells, 5 μg/ml of aphidicolin was added 2 h before the experiment. Cultured cells were fixed 2 days PI and β-galactosidase was estimated. Blue cells were counted under a light microscope at 200× magnification.

[2] = test system: HIV-1 IN (nuclear import); assay: Immunostaining of IN localization in HIV-1-infected HeLaP4 cells; format: cell-based; conditions: aphidicolin-arrested HeLaP4, 150 μM peptide 2 h, then HIV-1 MOI 25, fixed 10 h PI (Fig. 7B)
Description: Localization studies of IN in HIV-1-infected cultured cells by immunostaining
HeLaP4 cells were grown on chamber slides. […] After incubation with the peptides, cells were infected with wild-type HIV-1 at a multiplicity of infection (MOI) of 25. Cells were fixed and stained as described above with the following modifications: fixation was performed at 10 h PI, the first antibody was used at a dilution of 1:50, the second antibody at a dilution of 1:100.

IN-importin α complex = assay: Co-immunoprecipitation of IN and importin α from HIV-1-infected cells; conditions: HIV-1-infected H9 lymphocytes, 150 μM peptide 2 h prior to infection, harvested 10 h PI (Fig. 7A)
[3] = test system: HIV-1 replication in Sup-T1 cells; assay: Time-of-addition assay, viral p24 production in Sup-T1 cells; format: cell-based; conditions: non-active peptides, NLS-IN and Pen at 62.5 μM in time-of-addition; sentence cites Fig. 9 as a whole
Description: Sup-T1 cells were infected with wild-type HIV-1 at a MOI of 2, and the test compounds were added at different time points after infection (0, 2, 4,..., 24 h). Viral p24 production was determined at 48 h PI [67]. Dextran sulfate was tested at 20 μM, AZT at 2 μM, NLS-IN-Pen, NLS-IN and Pen at 62.5 μM, LEDGF 402-411 at 12.5 μM [41].

[4] = test system: COS-7 cells (nuclear import); assay: Microinjection of FITC-BSA conjugates into COS-7 cells, nuclear import; format: cell-based; conditions: 37°C, 2 h after injection, fluorescence microscopy (Fig. 3A-E)
From the text: Nuclear import transport substrates
Proteins and peptides used in this work as transport substrates were covalently attached to either fluorescein isothiocyanate-labeled bovine serum albumin (FITC-BSA) or biotinylated BSA (Bb) molecules (Sigma). Sulfosuccinimidyl-4-(N-maleimidomethyl) cyclohexane-1-carboxylate (sulfo-SMCC) was used as the cross-linker to give FITC-BSA-protein/peptide and Bb-protein/peptide conjugates, as described previously.
Microinjection of fluorescently labeled transport substrates
FITC-BSA-IN, FITC-BSA-180-IN, FITC-BSA-152-IN, FITC-BSA-NLS-IN, as well as unlabeled FITC-BSA, were microinjected into the cytoplasm of cultured COS-7 cells as described previously. The CompInject AIS2 automated microinjection system (Cell Biology Trading, Hamburg, Germany) was used following the method developed by Graessmann and Graessman. Cultured mammalian cells were incubated at 37°C for 2 h after injection and observed by fluorescence microscopy.

Substance: RQIKIWFQNRRMKWKK [Pen]
- nuclear import / intracellular localization of IN [1]: did not have any effect on nuclear import of IN
- HIV-1 infection inhibition (HIV-1 in TZM-bl cells): no inhibition of HIV-1 infection
- intranuclear IN in infected cells [2]: some intranuclear fluorescently labeled IN could be observed
- IN-importin α interaction (co-IP) (IN-importin α complex): neither the SV40-mut-NLS-Pen (or a scrambled NLS-IN [23], not shown) nor the Pen peptide itself promoted dissociation of the IN-importin α complex
- inhibition of HIV-1 (Fig. 9) [3]: Inhibition was not observed

Substance: FITC-BSA: fluorescein isothiocyanate-labeled bovine serum albumin
- nuclear import after microinjection [4]: no nuclear import was observed
